# Source: US8471005B2 (Cephalon, Inc., priority 2008, dated 2013)
# Where two headings read alike, the source gives them in different places.
# Tests used:
# ALK = molecular target: T1, ALK (Homo sapiens, UniProt Q9UM73); test: ALK Kinase Assay (ELISA/TRF, PLC-γ substrate); format: biochemical; conditions: read-out: ALK Potency
# T1 construct: host or cells: baculovirus expression system
# Procedure, shortened: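 PLC-γ substrate coated at 10 μg/mL in TBS; reaction started with 30 ng/ml ALK, run 15 min at 37° C. Phosphoproduct detected by TRF with Eu-N1-labeled PT66 anti-phosphotyrosine antibody. IC50 from sigmoidal variable-slope fit of percent inhibition versus log concentration.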
# JAK2 = molecular target: T2, JAK2 (Homo sapiens, UniProt O60674); test: Recombinant Human JAK2 Kinase Assay (TRF); format: biochemical; conditions: read-out: JAK2 Potency
# T2 construct: host or cells: baculovirus expression system
# Procedure, shortened: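 Baculovirus-expressed JAK2 (15 ng/ml) phosphorylated a biotinylated 15-mer peptide captured on Neutravidin, in 20 mM HEPES pH 7.2, 0.2 μM ATP, 1 mM MnCl2, 0.1% BSA, 2.5% DMSO final, 20 min at room temperature. Phosphoproduct detected by time-resolved fluorescence with Eu-N1-labelled PY100 antibody.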
# [1] = ALK kinase inhibition, 1 μM ATP
# [2] = JAK2 kinase inhibition, 0.2 μM ATP
# T2 sequence (O60674 whole entry): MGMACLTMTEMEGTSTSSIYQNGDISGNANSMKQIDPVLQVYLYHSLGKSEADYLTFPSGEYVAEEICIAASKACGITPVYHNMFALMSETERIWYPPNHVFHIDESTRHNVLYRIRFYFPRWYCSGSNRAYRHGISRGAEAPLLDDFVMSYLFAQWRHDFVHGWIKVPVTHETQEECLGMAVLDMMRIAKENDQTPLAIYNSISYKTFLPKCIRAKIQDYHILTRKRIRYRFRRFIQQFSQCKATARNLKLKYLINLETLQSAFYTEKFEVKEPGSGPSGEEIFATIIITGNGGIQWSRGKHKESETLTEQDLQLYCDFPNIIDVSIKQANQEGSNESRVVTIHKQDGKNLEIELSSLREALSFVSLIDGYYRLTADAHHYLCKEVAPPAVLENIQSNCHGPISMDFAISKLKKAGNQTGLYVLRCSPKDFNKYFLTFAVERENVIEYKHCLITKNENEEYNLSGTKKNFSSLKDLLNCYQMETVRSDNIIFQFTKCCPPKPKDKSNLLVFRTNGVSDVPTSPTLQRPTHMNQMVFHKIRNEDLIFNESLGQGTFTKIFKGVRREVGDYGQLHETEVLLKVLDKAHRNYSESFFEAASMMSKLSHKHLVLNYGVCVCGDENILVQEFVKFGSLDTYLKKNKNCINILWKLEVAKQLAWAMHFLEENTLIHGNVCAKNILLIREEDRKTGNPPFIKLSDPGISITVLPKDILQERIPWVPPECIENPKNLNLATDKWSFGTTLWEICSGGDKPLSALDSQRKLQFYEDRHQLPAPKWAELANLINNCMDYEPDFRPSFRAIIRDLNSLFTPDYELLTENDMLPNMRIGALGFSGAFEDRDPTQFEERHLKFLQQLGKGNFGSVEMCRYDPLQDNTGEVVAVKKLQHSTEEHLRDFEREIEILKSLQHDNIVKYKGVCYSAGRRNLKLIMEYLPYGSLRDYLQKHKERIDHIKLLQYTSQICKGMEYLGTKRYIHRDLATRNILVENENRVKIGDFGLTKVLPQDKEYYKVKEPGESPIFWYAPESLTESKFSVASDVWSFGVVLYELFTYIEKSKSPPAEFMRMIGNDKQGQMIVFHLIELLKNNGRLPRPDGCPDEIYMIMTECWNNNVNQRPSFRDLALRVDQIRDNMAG
# T1 sequence (Q9UM73 19-1620): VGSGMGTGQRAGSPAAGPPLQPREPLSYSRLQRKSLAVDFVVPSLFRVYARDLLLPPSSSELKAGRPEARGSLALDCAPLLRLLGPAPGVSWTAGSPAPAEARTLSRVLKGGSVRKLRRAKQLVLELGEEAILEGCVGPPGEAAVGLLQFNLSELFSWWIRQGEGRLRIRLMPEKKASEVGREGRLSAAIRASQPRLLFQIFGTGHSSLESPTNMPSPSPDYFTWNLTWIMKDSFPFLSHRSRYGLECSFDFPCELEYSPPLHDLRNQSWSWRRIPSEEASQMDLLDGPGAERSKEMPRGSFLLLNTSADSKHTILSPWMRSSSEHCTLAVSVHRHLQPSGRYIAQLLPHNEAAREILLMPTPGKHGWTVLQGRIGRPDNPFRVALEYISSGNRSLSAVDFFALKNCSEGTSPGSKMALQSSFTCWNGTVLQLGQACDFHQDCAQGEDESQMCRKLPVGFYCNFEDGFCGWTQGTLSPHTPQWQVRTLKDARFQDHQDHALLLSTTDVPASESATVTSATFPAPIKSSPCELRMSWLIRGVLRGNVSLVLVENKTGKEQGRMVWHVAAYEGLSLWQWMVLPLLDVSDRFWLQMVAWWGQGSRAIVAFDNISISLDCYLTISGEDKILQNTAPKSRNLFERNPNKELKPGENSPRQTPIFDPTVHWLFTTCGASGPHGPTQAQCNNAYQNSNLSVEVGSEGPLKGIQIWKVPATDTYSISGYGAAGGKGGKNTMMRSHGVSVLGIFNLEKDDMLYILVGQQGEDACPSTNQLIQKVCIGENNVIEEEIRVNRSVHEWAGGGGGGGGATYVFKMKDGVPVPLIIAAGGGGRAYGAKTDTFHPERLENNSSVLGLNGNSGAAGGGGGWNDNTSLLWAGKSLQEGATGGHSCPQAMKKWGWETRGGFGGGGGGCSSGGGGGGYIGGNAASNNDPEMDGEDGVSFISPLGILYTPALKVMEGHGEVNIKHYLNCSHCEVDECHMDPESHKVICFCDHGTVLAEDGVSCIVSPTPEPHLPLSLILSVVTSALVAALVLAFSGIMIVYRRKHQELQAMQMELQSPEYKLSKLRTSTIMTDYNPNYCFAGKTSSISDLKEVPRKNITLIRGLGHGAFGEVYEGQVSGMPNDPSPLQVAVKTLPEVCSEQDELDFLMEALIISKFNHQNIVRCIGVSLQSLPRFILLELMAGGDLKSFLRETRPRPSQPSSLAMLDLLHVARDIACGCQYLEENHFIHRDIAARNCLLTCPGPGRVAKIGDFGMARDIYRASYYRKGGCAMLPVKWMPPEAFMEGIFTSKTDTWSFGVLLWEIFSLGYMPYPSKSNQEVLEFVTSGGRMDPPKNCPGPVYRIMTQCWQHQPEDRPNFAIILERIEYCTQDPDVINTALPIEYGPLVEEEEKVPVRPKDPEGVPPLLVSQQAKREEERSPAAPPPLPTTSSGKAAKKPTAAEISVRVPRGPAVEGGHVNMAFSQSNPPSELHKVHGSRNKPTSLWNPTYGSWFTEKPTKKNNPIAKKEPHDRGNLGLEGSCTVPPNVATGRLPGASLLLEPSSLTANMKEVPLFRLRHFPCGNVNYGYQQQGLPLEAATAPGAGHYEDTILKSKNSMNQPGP
Compound,IC50 (ALK; [1]) [nM],IC50 (JAK2; [2]) [nM],IC50 (ALK; ALK Kinase Inhibition) [nM],IC50 (JAK2; JAK2 Kinase Inhibition) [nM]
"COc1cc(CN2CCN(C[C@@H](O)CO)CC2)ccc1Nc1ncc2ccc(-c3ccccc3N(C)S(C)(=O)=O)n2n1 [Example 1228, N-[2-(2-{4-[4-((R)-2,3-Dihydroxy-propyl)-piperazin-1-ylmethyl]-2-methoxy-phenylamino}-pyrrolo[2,1-f][1,2,4]triazin-7-yl)-phenyl]-N-methyl-methanesulfonamide]",< 100,100 to 1000,–,–
"2-Methyl-propane-2-sulfonic acid (3-{2-[4-(4-diethylamino-piperidin-1-yl)-phenylamino]-pyrrolo[2,1-f][1,2,4]triazin-7-yl}-phenyl)-amide [Example 1217]",< 100,< 100,–,–
"COc1ccc(Nc2ncc3ccc(-c4cccc(Cl)c4)n3n2)cc1 [Example 155, [7-(3-Chloro-phenyl)-pyrrolo[2,1-f][1,2,4]triazin-2-yl]-(4-methoxy-phenyl)-amine]",–,–,> 10000,< 100
"COc1ccc(-c2ccc3cnc(Nc4cccc(NC(=O)[C@@H](C)OC)c4)nn23)cn1 [Example 900, (R)-2-Methoxy-N-{3-[7-(6-methoxy-pyridin-3-yl)-pyrrolo[2,1-f][1,2,4]triazin-2-ylamino]-phenyl}-propionamide]",100 to 1000,< 100,–,–
"C[C@H](O)CN1CCN(c2cc([S@@+](C)[O-])c(Nc3ncc4ccc(-c5ccccc5N(C)S(C)(=O)=O)n4n3)cc2F)CC1 [Example 1485, (R,S)—N-[2-(2-{5-Fluoro-4-[4-((S)-2-hydroxy-propyl)-piperazin-1-yl]-2-methanesulfinyl-phenylamino}-pyrrolo[2,1-f][1,2,4]triazin-7-yl)-phenyl]-N-methyl-methanesulfonamide]",–,–,100 to 1000,< 100
"CC(C)(C)NS(=O)(=O)c1cccc(-c2ccc3cnc(Nc4ccc(=O)[nH]c4)nn23)c1 [Example 590, N-tert-Butyl-3-[2-(6-oxo-1,6-dihydro-pyridin-3-ylamino)-pyrrolo[2,1-f][1,2,4]triazin-7-yl]-benzenesulfonamide]",1000 to 10000,< 100,–,–
"COc1ccccc1Sc1ccc2cnc(Nc3ccc(N4CCN(C)CC4)cc3)nn12 [Example 98, [7-(2-Methoxy-phenylsulfanyl)-pyrrolo[2,1-f][1,2,4]triazin-2-yl]-[4-(4-methyl-piperazin-1-yl)-phenyl]-amine]",–,–,100 to 1000,< 100
"COc1ccccc1-c1ccc2cnc(Nc3cccc(C(N)=O)c3)nn12 [Example 164, 3-[7-(2-Methoxy-phenyl)-pyrrolo[2,1-f][1,2,4]triazin-2-ylamino]-benzamide]",–,–,100 to 1000,< 100
"COc1cc(N2CCC(N3CCN(C)CC3)CC2)ccc1Nc1ncc2ccc(-c3ccc(Cl)nc3)n2n1 [Example 533, [7-(6-Chloro-pyridin-3-yl)-pyrrolo[2,1-f][1,2,4]triazin-2-yl]-{2-methoxy-4-[4-(4-methyl-piperazin-1-yl)-piperidin-1-yl]-phenyl}-amine]",< 100,< 100,–,–
"FC(F)(F)c1cc(-c2ccc3cnc(Nc4ccc(N5CCOCC5)cc4)nn23)ccc1Cl [Example 58, [7-(4-Chloro-3-trifluoromethyl-phenyl)-pyrrolo[2,1-f][1,2,4]triazin-2-yl]-(4-morpholin-4-yl-phenyl)-amine]",–,–,1000 to 10000,< 100
"COc1ccc(Cl)cc1-c1ccc2cnc(Nc3cccc(N4CCN(CC(C)(C)O)CC4)c3)nn12 [Example 219, 1-(4-{3-[7-(5-Chloro-2-methoxy-phenyl)-pyrrolo[2,1-f][1,2,4]triazin-2-ylamino]-phenyl}-piperazin-1-yl)-2-methyl-propan-2-ol]",–,–,< 100,< 100
"COc1cc(N2CCN(C)CC2)ccc1Nc1ncc2ccc(-c3ccccc3S(=O)(=O)N(C)C)n2n1 [Example 35, 2-{2-[2-Methoxy-4-(4-methyl-piperazin-1-yl)-phenylamino]-pyrrolo[2,1-f][1,2,4]triazin-7-yl}-N,N-dimethyl-benzenesulfonamide]",–,–,100 to 1000,1000 to 10000
